{"source": "patent US6482309B1", "about": "“Electrolytic generation of nascent iodine as a method of treatment and for the prevention of infections associated with medical implant devices” (OxiBio, Inc., priority 1999, dated 2002)", "origin": "cited, not measured here", "tested_on": "bacteria and viruses"}
{"smiles": "II", "note": "[free iodine, iodine]", "values": [{"measurement": "level of free iodine required for efficient microbial killing", "value": "~2", "unit": "ppm"}]}
